In patent US6713623B2, “Tetraphosphonate bicyclic trisanhydrides” (Pharmasset, Ltd., priority 1996, dated 2004):

Tests used:
[1] = test system: glucuronosyltransferases; experiment: glucuronidation by glucuronosyltransferases in vitro; assay type: in vitro ADME; details: parallel experiments
[2] = test system: K562 erythroleucemic cells; experiment: anti-proliferative activity against K562 cells; assay type: cell-based; details: Homo sapiens, read-out: IC50, growth of K562 cells
Protocol: The compounds of structure 1 are stable in plasma at room temperature for at least several days. It is assayed for both inhibitory activity against human IMPDH type II and for anti-proliferative activity against K562 erythroleucemic cells. […] The ability to induce differentiation in K562 cells is also estimated by determining the fraction of benzidine positive cells converted following incubation with β-methylene-MAD.

[3] = target: human IMPDH type II (Homo sapiens, UniProt P12268); experiment: inhibitory activity against human IMPDH type II; assay type: biochemical; details: 100 μM NAD, 50 μM IMP, 25 nM enzyme, pH 8.0; read-out: Ki, inhibitor of IMPDH type II
[4] = target: IMPDH type I (Homo sapiens, UniProt P20839); details: Carr et al.; read-out: Ki, IMPDH type I expressed in normal cells; cited from earlier work
Sequence of IMPDH type I (P20839 whole entry): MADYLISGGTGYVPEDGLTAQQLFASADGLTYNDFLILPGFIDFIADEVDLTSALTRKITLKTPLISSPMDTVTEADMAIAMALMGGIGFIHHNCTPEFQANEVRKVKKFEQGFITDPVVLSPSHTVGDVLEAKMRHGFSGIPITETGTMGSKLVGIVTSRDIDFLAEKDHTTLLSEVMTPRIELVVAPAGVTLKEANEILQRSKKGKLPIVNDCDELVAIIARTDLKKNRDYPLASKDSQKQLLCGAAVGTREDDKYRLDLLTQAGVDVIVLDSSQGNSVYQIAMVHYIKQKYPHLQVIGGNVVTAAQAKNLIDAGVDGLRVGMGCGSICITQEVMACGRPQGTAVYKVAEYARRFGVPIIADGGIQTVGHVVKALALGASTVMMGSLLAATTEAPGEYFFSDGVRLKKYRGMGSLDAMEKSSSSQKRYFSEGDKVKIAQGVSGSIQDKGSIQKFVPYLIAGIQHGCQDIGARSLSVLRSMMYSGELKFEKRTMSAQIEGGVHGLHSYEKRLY

[5] = test system: tumors; details: quick conversion into the inactive β-glucuronide after administration; cited from earlier work
[6] = test system: B and T lymphocyte; details: cited from earlier work
[7] = test system: inosine monophosphate dehydrogenase (IMPDH); details: Marquez et al., J. Med. Chem. 1986; cited from earlier work

IC50 [2] [nM]	Ki [3] [nM]	Compound	glucuronidation by various glucuronosyltransferases [1]	Ki [4] [nM]	activity against tumors [5]	B and T lymphocyte proliferation [6]	inhibition of IMPDH [7]
6000	300	COc1c(C)c2c(c(O)c1CC=C(C)CCCOP(=O)(O)CP(=O)(O)OCC1OC(n3cnc4c(N)ncnc43)C(O)C1O)C(=O)OC2 (stereo not drawn) [β-methylene-MAD, P^1-(adenosin-5-yl)-P^2-(mycophenol-5′-yl)methylenebis(phosphonate)]	completely resistant to glucuronidation	–	–	–	–
–	–	COc1c(C)c2c(c(O)c1C/C=C(\C)CCC(=O)O)C(=O)OC2 [mycophenolic acid, Mycophenolic acid]	effectively glucuronidated	33 to 37	inactive	blocks	–
–	–	NC(=O)c1csc([C@@H]2O[C@H](COP(=O)(O)CP(=O)(O)OC[C@H]3O[C@@H](n4cnc5c(N)ncnc54)[C@H](O)[C@@H]3O)[C@@H](O)[C@H]2O)n1 [β-methylene TAD]	–	–	–	–	potent inhibitor
